Laboratory results as given in the supplement of paper PMC13386468.

Key:
Settings in all cases: assay detail: Kinobeads competition in P. falciparum blood-stage lysate
UniProt Q8I442 = experiment: apparent dissociation constant (Kd app) from Kinobeads competition
UniProt Q8IE41 = experiment: as above
UniProt C0H4R8 = experiment: as above
UniProt Q8IIW6 = experiment: as above
A0A144A0U7 = experiment: as above
UniProt Q8I535 = experiment: as above
UniProt Q8IAM4 = experiment: as above
UniProt Q8I5H9 = experiment: as above
UniProt Q8I5E3 = experiment: as above
UniProt Q8IKQ9 = experiment: as above
UniProt Q8IJR8 = experiment: as above
UniProt Q7KQK0 = experiment: as above
UniProt Q9U0K8 = experiment: as above
UniProt Q8IAZ3 = experiment: as above
UniProt Q8I5D4 = experiment: as above
UniProt C6KSZ6 = experiment: as above
UniProt O77344 = experiment: as above
UniProt Q8IEL1 = experiment: as above
UniProt C6KSQ1 = experiment: as above
UniProt Q8ILI9 = experiment: IC50 for competition of protein binding to Kinobeads
UniProt Q8I1Z8 = experiment: as above
UniProt Q8IIG6 = experiment: as above
UniProt C6KTB4 = experiment: as above
UniProt Q8IIK8 = experiment: as above
UniProt Q8IB78 = experiment: as above
UniProt Q8I635 = experiment: as above
UniProt Q8IDB8 = experiment: as above
UniProt Q8II92 = experiment: as above
UniProt Q8I616 = experiment: as above
UniProt C0H4U0 = experiment: as above
UniProt Q8I2J3 = experiment: as above
UniProt Q8I2J3, sequence (Q8I2J3 whole entry): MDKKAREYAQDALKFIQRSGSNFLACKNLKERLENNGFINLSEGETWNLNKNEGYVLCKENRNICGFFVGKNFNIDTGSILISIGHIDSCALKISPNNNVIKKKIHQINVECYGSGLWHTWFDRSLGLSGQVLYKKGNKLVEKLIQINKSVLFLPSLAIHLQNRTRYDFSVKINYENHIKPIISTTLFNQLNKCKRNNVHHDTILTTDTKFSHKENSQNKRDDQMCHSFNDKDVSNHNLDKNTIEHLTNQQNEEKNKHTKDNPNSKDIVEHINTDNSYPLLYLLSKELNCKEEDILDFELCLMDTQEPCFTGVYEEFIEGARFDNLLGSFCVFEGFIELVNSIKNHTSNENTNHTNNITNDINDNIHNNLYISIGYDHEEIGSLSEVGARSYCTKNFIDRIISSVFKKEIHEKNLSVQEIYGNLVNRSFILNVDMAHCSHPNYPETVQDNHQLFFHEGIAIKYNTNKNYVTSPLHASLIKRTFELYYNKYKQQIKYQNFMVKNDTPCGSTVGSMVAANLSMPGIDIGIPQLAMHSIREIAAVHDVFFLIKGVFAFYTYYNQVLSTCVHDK

UniProt Q8IBK8 = experiment: as above
UniProt Q8IE09 = experiment: as above
UniProt Q8II62 = experiment: as above
UniProt O96203 = experiment: as above
UniProt Q8IL48 = experiment: as above
UniProt Q8I4Z2 = experiment: as above
UniProt Q8ILX1 = experiment: as above
UniProt Q7KQJ9 = experiment: as above
UniProt Q7KQJ9, sequence (Q7KQJ9 whole entry): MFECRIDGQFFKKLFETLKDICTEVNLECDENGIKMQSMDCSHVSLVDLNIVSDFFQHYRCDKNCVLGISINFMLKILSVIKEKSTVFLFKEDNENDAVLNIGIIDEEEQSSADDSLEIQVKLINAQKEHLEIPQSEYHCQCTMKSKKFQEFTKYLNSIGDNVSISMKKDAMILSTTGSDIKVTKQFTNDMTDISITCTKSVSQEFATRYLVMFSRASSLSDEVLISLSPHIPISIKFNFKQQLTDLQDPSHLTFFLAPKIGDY

UniProt Q8II00 = experiment: as above
UniProt Q8IJG6 = experiment: as above
UniProt O96221 = experiment: as above
UniProt Q8IB60 = experiment: as above
UniProt Q8I5L6 = experiment: as above
UniProt Q8IKU0 = experiment: as above
UniProt Q8IKU0, sequence (Q8IKU0 whole entry): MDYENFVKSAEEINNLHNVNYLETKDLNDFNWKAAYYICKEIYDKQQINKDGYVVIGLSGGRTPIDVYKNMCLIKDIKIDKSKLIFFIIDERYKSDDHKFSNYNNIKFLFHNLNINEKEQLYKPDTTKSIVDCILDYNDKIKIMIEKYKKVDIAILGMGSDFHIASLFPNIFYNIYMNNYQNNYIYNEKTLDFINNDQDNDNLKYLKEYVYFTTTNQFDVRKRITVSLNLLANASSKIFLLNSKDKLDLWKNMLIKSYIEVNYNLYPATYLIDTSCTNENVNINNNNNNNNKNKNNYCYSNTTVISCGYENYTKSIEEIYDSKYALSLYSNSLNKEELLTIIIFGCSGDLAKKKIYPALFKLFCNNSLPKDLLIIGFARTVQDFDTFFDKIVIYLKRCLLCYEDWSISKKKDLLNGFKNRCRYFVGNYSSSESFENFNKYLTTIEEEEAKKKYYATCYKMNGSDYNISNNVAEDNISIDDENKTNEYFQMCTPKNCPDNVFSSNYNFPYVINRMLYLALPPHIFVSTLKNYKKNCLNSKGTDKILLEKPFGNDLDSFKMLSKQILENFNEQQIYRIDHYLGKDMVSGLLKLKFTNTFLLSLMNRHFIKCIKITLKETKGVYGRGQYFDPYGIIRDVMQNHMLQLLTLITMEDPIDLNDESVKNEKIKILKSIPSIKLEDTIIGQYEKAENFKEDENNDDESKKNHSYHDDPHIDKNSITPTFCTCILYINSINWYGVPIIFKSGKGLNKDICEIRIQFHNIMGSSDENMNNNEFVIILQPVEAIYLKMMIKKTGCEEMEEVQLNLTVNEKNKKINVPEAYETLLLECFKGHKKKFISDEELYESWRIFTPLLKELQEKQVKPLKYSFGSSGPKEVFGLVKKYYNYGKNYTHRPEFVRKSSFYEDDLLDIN

UniProt Q8IM23 = experiment: as above
UniProt Q8IB73 = experiment: as above
UniProt Q8IDK7 = experiment: as above
UniProt Q8ILH5 = experiment: as above
UniProt Q8IIJ4 = experiment: as above
UniProt Q8I348 = experiment: as above
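Wherever IC50 is given: native unpurified kinases from lysate captured on beads bearing immobilized kinase inhibitors, with bead-bound kinases quantified by mass spectrometry across compound doses.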

SMILES: O=c1[nH]c2ccc(Cl)cc2c(NC2CN3CCC2CC3)c1-c1nc2ccccc2[nH]1 (stereo unspecified) [CHIR-124]
- Kd (UniProt Q8I442): 7.1 µM
- Kd (UniProt Q8IE41): 0.239 µM
- Kd (UniProt C0H4R8): 4.84 µM
- Kd (UniProt Q8IIW6): 0.181 µM
- Kd (A0A144A0U7): 7.53 µM
- Kd (UniProt Q8I535): 0.0455 µM
- Kd (UniProt Q8IAM4): 7.66 µM
- Kd (UniProt Q8I5H9): 10.3 µM
- Kd (UniProt Q8I5E3): 7.57 µM
- Kd (UniProt Q8IKQ9): 15.3 µM
- Kd (UniProt Q8IJR8): 0.314 µM
- Kd (UniProt Q7KQK0): 0.621 µM
- Kd (UniProt Q9U0K8): 4.29 µM
- Kd (UniProt Q8IAZ3): 9.02 µM
- Kd (UniProt Q8I5D4): 5.65 µM
- Kd (UniProt C6KSZ6): 1.4 µM
- Kd (UniProt O77344): 1.28 µM
- Kd (UniProt Q8IEL1): 1.9 µM
- Kd (UniProt C6KSQ1): 0.168 µM
- IC50 (UniProt Q8ILI9): > 20 µM
- IC50 (UniProt Q8I1Z8): > 20 µM
- IC50 (UniProt Q8IIG6): > 20 µM
- IC50 (UniProt C6KTB4): > 20 µM
- IC50 (UniProt Q8IIK8): > 20 µM
- IC50 (UniProt Q8IB78): > 20 µM
- IC50 (UniProt Q8I635): > 20 µM
- IC50 (UniProt Q8IDB8): > 20 µM
- IC50 (UniProt Q8II92): > 20 µM
- IC50 (UniProt Q8I616): > 20 µM
- IC50 (UniProt C0H4U0): > 20 µM
- IC50 (UniProt Q8I2J3): > 20 µM
- IC50 (UniProt Q8IBK8): > 20 µM
- IC50 (UniProt Q8IE09): > 20 µM
- IC50 (UniProt Q8II62): > 20 µM
- IC50 (UniProt O96203): > 20 µM
- IC50 (UniProt Q8IL48): > 20 µM
- IC50 (UniProt Q8I4Z2): > 20 µM
- IC50 (UniProt Q8ILX1): > 20 µM
- IC50 (UniProt Q7KQJ9): > 20 µM
- IC50 (UniProt Q8II00): > 20 µM
- IC50 (UniProt Q8IJG6): > 20 µM
- IC50 (UniProt O96221): > 20 µM
- IC50 (UniProt Q8IB60): > 20 µM
- IC50 (UniProt Q8I5L6): > 20 µM
- IC50 (UniProt Q8IKU0): > 20 µM
- IC50 (UniProt Q8IM23): > 20 µM
- IC50 (UniProt Q8IB73): > 20 µM
- IC50 (UniProt Q8IDK7): > 20 µM
- IC50 (UniProt Q8ILH5): > 20 µM
- IC50 (UniProt Q8IIJ4): > 20 µM
- IC50 (UniProt Q8I348): > 20 µM
